Assay results reported in publication PMC8231170, “Biphenylalkoxyamine Derivatives–Histamine H3 Receptor Ligands with Butyrylcholinesterase Inhibitory Activity” (Molecules, 2021).
Where a name gives a salt, the structure may show the parent alone. Read-outs that look alike come from different tables or passages of the source. Marks after values point to notes of the source that are not given here.

Assays:
[1] = test system: mouse model of scopolamine-induced memory impairments; experiment: step-through Passive Avoidance Task; type: in vivo; details: mice; for latency times, acquisition trial: i.p.
Protocol: This procedure was created for studying short-term memory as well as long-term memory. The paradigm requires the rodents to behave contrary to their innate preference for dark areas and for avoiding bright ones.
The experiments were carried out on adult male Albino Swiss mice (CD-1, 18–25 g). […] Experimental groups consisted of 6–12 animals, all the animals were used only once and they were killed by cervical dislocation immediately after the assay. Behavioral measures were scored by trained observers, which were blind to experimental conditions. Treatment of laboratory animals in the present study was in full accordance with the respective Polish regulations.
Control animals (negative control) were given an appropriate amount of vehicle (1% aqueous solution of Tween 80; i.p.) 30 min before the test.
The task was performed according to the method described previously. Briefly, the test was conducted in the apparatus with two compartments (LE872, Bioseb, France). The illuminated white compartment (20 cm × 21 cm × 20 cm, 1000 lx) was separated by an automated sliding gate with the smaller dark compartment (7.3 cm × 7.5 cm × 14 cm, 10 lx) equipped with an electric grid floor. For acquisition session, mice were first placed individually in the white compartment and after 30 s the gate to the smaller compartment was opened. Immediately after entering into the dark compartment, the gate was closed and the mouse was punished by an unavoidable electric foot shock (0.8 mA for 2 s). […] Next day (24 h later), the pretested animals were placed again into the bright compartment. […] The latency time to cross through the gate between the compartments was measured.

[2] = molecular target: T1, AChE from electric eel (Electrophorus electricus, UniProt O42275); experiment: eeAChE inhibition, Ellman's method; type: biochemical; details: for inhibition at 10 µM: read-out: eeAChE % Inh.; for IC50: AChE from electric eel, read-out: eeAChE IC50 Mean ± SEM
T1 construct: AChE was obtained from electric eel and BuChE from equine serum; purchased Sigma Aldrich; host or cells: electric eel (natural source)
Protocol: The inhibitory activities of the tested compounds against cholinesterases were evaluated by Ellman’s method. AChE was obtained from electric eel and BuChE from equine serum. Donepezil and rivastigmine were used as reference compounds. […]. Inhibitory activities of the tested compounds against cholinesterases were measured using a spectrophotometric method modified for 96-well microplates as described recently.
[…]. First, all compounds were screened at the concentration of 10 μM. The changes in absorbance were measured at 412 nm, using a microplate reader (EnSpire Multimode; PerkinElmer, Waltham, MA, USA). Then, the percent of inhibition of tested enzymes for each compound was calculated. […] Each concentration was measured in triplicate. All calculations were made using nonlinear regression GraphPad Prism 5 (GraphPad Software, San Diego, CA, USA).

[3] = molecular target: T2, human MAO B (Homo sapiens, UniProt P27338); experiment: fluorometric Monoamine Oxidase assay; type: biochemical; details: at 1 μM; read-out: hMAO B %Inh. (converted)
T2 construct: purchased Sigma Aldrich M7441
T2 sequence (P27338 1-520): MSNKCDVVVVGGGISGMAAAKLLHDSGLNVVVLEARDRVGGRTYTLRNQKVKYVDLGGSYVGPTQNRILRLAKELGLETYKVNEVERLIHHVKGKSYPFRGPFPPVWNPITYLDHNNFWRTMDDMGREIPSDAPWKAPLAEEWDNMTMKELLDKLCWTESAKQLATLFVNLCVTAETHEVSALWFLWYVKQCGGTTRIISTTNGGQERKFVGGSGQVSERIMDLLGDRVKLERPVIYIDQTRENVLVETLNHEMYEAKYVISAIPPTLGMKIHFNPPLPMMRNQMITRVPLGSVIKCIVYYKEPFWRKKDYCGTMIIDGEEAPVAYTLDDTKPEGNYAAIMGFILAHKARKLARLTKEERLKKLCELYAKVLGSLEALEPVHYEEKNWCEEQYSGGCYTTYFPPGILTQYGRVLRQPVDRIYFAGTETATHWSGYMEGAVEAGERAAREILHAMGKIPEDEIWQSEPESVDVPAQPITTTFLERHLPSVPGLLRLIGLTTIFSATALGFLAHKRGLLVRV
Protocol: Inhibition of human MAO B (hMAO B) was evaluated using a fluorometric Monoamine Oxidase assay as we described previously.
Inhibition of hMAO B was evaluated using fluorometric Monoamine Oxidase assay as described by Łażewska et al.. Recombinant MAO B was purchased from Sigma Aldrich (M7441). […] The assay was carried out in 96-well plate. Tested compounds dissolved in DMSO (1 μM) were added to wells that contained 98 µL of enzyme dilution (1 µg/well) in phosphate buffer (50 mM, pH 7.4). […] An enzymatic reaction started following addition of para-tyramine solution (200 μM). […] Each experiment was performed in duplicate.

[4] = molecular target: T3, BuChE from equine serum (Equus caballus, UniProt P81908); experiment: eqBuChE inhibition, Ellman's method; type: biochemical; details: BuChE from equine serum; read-out: eqBuChE IC50 Mean ± SEM
T3 construct: AChE was obtained from electric eel and BuChE from equine serum; purchased Sigma Aldrich; host or cells: equine serum (natural source)
Protocol: The inhibitory activities of the tested compounds against cholinesterases were evaluated by Ellman’s method. AChE was obtained from electric eel and BuChE from equine serum. […] Inhibitory activities of the tested compounds against cholinesterases were measured using a spectrophotometric method modified for 96-well microplates as described recently.
First, all compounds were screened at the concentration of 10 μM. […] Then, the percent of inhibition of tested enzymes for each compound was calculated. […] Each concentration was measured in triplicate. All calculations were made using nonlinear regression GraphPad Prism 5 (GraphPad Software, San Diego, CA, USA).

[5] = molecular target: T4, human histamine H3 receptor (Homo sapiens, UniProt Q9Y5N1); experiment: hH3R radioligand binding assay ([3H]Nα-methylhistamine)
T4 construct: expressed in transfected cells; host or cells: HEK293
Protocol: Affinity to human histamine H3 receptor stably expressed in HEK293 cells was evaluated in a radioligand binding assay with N^α-methylhistamine according to the previous procedure. […] The bound radioligand was separated from the free radioligand by filtration through GF/B filters (pretreated with 0.3% (m/v) polyethylenimine) using Inotech cell harvester (Dottikin, Switzerland). Unbound radioligand was removed by three washing steps with ice-cold water. The radioactivity was determined in a liquid scintillation counter (Perkin Elmer Trilux Betacounter, Germany). Scintillation data corrected for non-specific binding were analyzed using GraphPad Prism (V6.01, San Diego, CA, USA) software. Ki values were calculated from IC50 values (from at least three experiments, performed in duplicates) according to the Cheng–Prusoff equation [29].

[6] = molecular target: T4, human histamine H3 receptor; details: cited from earlier work; for Ki: read-out: hH3R Ki Mean ± SD [CI 95%], [3H]Nα-methylhistamine, HEK293 cells stably expressing human H3R
[7] = molecular target: T1, AChE from electric eel; details: cited from earlier work; for eeAChE % Inh.: at 10 μM
[8] = molecular target: T3, BuChE from equine serum; details: cited from earlier work
[9] = molecular target: human butyrylcholineserase; details: read-out: hBuChE IC50; cited from earlier work
[10] = [3H]Nα-methylhistamine, HEK293 cells stably expressing human H3R, read-out: hH3R Ki Mean ± SD [CI 95%]
[11] = read-out: eqBuChE IC50 Mean ± SEM

T3 sequence (P81908 whole entry): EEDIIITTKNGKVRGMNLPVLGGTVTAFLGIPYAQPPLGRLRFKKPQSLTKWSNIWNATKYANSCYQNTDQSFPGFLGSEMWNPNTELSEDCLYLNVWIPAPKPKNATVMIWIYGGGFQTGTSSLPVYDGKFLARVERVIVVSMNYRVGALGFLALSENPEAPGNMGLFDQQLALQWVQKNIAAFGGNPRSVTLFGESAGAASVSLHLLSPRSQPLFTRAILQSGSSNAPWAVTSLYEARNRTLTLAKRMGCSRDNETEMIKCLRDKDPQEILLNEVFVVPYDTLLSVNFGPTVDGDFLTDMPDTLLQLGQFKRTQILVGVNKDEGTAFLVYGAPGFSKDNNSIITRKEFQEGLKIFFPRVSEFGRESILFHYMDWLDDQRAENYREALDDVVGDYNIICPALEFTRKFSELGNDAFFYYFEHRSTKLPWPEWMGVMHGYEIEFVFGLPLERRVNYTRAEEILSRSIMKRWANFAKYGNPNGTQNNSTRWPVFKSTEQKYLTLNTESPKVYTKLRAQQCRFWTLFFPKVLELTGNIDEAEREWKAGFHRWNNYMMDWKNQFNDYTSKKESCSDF
T4 sequence (Q9Y5N1 whole entry): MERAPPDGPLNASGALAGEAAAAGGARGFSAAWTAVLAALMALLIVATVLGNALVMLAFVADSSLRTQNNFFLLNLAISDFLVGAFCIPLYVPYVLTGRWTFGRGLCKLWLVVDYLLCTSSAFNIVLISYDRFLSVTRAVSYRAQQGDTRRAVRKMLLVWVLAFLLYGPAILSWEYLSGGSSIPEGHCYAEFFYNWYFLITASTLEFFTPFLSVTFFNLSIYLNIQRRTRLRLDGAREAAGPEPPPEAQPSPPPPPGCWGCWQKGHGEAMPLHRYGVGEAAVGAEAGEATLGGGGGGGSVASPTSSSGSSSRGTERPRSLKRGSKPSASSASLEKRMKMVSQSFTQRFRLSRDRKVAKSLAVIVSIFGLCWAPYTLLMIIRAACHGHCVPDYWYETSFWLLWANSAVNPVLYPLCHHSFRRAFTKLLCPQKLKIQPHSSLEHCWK
T1 sequence (O42275 24-633): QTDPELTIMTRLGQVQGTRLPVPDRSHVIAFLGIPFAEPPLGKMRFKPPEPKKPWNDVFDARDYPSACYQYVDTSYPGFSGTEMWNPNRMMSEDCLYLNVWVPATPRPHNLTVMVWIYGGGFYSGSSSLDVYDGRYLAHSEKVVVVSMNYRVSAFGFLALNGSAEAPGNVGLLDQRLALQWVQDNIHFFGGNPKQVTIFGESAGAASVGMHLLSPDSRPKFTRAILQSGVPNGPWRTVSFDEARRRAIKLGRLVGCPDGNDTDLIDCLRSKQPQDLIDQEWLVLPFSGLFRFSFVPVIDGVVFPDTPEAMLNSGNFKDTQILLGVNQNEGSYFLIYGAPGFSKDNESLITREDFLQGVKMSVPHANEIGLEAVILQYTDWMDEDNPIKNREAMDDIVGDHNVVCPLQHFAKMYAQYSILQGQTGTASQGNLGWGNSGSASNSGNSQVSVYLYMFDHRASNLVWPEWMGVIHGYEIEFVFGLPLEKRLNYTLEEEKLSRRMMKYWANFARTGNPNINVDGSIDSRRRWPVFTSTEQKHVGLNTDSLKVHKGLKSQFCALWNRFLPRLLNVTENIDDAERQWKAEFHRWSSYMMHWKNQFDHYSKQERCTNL

Row | Structure (SMILES) | inhibition at 10 µM [2] [%] | inhibition at 1 µM [3] [%] | IC50 [4] [nM] | other results
1 | CN1[C@@H]2C[C@@H](OC(=O)[C@H](CO)c3ccccc3)C[C@H]1[C@@H]1O[C@@H]12 [Scopolamine, scopolamine, reference compound] |  |  |  | latency times, acquisition trial [1]: neither scopolamine, nor 19 nor rivastigmine significantly affected latency times
2 | c1ccc(-c2ccc(OCCCCCN3CCCCC3)cc2)cc1 [Compound 6] | 24 | 50 | 2160 ± 30 | 
3 | c1ccc(-c2ccccc2OCCCCCCN2CCCCC2)cc1 [Compound 10, 1-(6-[1,1′-Biphenyl]-2-yloxy)hexyl)piperidine Hydrogen Oxalate] | 8 | 40 | 1280 ± 20 | Ki [5]: 221 nM
4 | CC1CCN(CCCCCCOc2cccc(-c3ccccc3)c2)CC1 [Compound 17] | 48 | 5 | 1490 ± 40 | Ki [6]: 172 ± 73 nM
5 | CC1CCN(CCCCCOc2cccc(-c3ccccc3)c2)CC1 [Compound 16] | 41 | 7 | 1460 ± 30 | 
6 | CC1CCCN(CCCCCOc2ccc(-c3ccccc3)cc2)C1 (centres unmarked) [Compound 11, 1-(5-([1,1′-Biphenyl]-4-yloxy)pentyl)-3-methylpiperidine Hydrogen Oxalate] | 45 | 28 | 910 ± 10 | Ki [5, 10]: 27.3 ± 15.1 nM
7 | CC1CCCN(CCCCCCOc2ccccc2-c2ccccc2)C1 (centres unmarked) [Compound 15, 1-(6-([1,1′-Biphenyl]-2-yloxy)hexyl)-3-methylpiperidine Hydrogen Oxalate] | 24 | 16 | 2100 ± 60 | Ki [5]: 23 nM
8 | CC1CCCN(CCCCCCOc2cccc(-c3ccccc3)c2)C1 (centres unmarked) [Compound 14, 1-(6-([1,1′-Biphenyl]-3-yloxy)hexyl)-3-methylpiperidine Hydrogen Oxalate] | > 50 | 35 | 1520 ± 40 | IC50 [2]: 4.71 ± 0.13 µM; Ki [5]: 27 nM
9 | CC1CCN(CCCCCCOc2ccc(-c3ccccc3)cc2)CC1 [Compound 4] |  | 27 |  | IC50 ([7]; AChE from electric eel, read-out: eeAChE IC50 Mean ± SEM): 4.46 ± 0.1 µM; eeAChE % Inh. [7]: more than 50%; IC50 [8, 11]: 740 ± 20 nM
10 | c1ccc(-c2ccccc2OCCCCCCN2CCCCCC2)cc1 [Compound 22, 1-(6-([1,1′-Biphenyl]-2-yloxy)hexyl)azepane Hydrogen Oxalate] | 30 | 17 | 690 ± 50 | Ki [5]: 528 nM
11 | c1ccc(-c2ccc(OCCCCCCN3CCCCC3)cc2)cc1 [Compound 8] | 48 | 36 | 1630 ± 50 | 
12 | CCN(C)C(=O)Oc1cccc([C@H](C)N(C)C)c1 [Rivastigmine, rivastigmine, reference compound] |  |  |  | latency time, retention trial ([1]; 1.0 mg/kg i.p. before scopolamine 1 mg/kg): 84.6 ± 20.1 s; latency time, retention trial ([1]; 2.5 mg/kg i.p. before scopolamine 1 mg/kg): 98.7 ± 17.9 s; latency times, acquisition trial [1]: neither scopolamine, nor 19 nor rivastigmine significantly affected latency times; IC50 [9]: 370 nM
13 | c1ccc(-c2cccc(OCCCCCN3CCCCC3)c2)cc1 [Compound 7] | 24 | 11 | 1290 ± 20 | 
14 | c1ccc(-c2cccc(OCCCCCCN3CCCCC3)c2)cc1 [Compound 9] | 35 | 16 | 1780 ± 80 | Ki [6]: 149 ± 108 nM
15 | CNCCc1cnc[nH]1 [[^3H]N^α-methylhistamine, reference compound] |  |  |  | Kd ([6]; hH3R stably expressed in HEK293 cells, read-out: KD of radioligand at hH3R): 3.08 nM
16 | CC1CCCN(CCCCCOc2cccc(-c3ccccc3)c2)C1 (centres unmarked) [Compound 12, 1-(5-([1,1′-Biphenyl]-3-yloxy)pentyl)-3-methylpiperidine Hydrogen Oxalate] | 27 | 5 | 680 ± 10 | Ki [5]: 45 ± 13.4 nM
17 | Clc1ccc(CCCOCCCN2CCCCC2)cc1 [Pitolisant, reference compound] |  | 2 |  | 
18 | c1ccc(-c2cccc(OCCCCCN3CCCCCC3)c2)cc1 [Compound 20] | 26 | 14 | 470 ± 10 | 
19 | c1ccc(-c2cccc(OCCCCCCN3CCCCCC3)c2)cc1 [Compound 21] | > 50 | 43 | 870 | Ki [6]: 19 ± 5.5 nM; IC50 [2]: 3.86 ± 0.08 µM
20 | CC1CCN(CCCCCOc2ccc(-c3ccccc3)cc2)CC1 [Compound 3] |  | 36 |  | eeAChE % Inh. [7]: (42% ± 1) ^i; IC50 ([8]; read-out: eqBuChE IC50): 851 nM; IC50 [8, 11]: 850 ± 20 nM
21 | CC1CCCN(CCCCCCOc2ccc(-c3ccccc3)cc2)C1 (centres unmarked) [Compound 13, 1-(6-([1,1′-Biphenyl]-4-yloxy)hexyl)-3-methylpiperidine Hydrogen Oxalate] | > 50 | 20 | 950 | IC50 [2]: 5.02 ± 0.09 µM; Ki [5, 10]: 146 ± 65.3 nM
22 | CC1CCN(CCCCCCOc2ccccc2-c2ccccc2)CC1 [Compound 18, 1-(6-([1,1′-Biphenyl]-2-yloxy)hexyl)-4-methylpiperidine Hydrogen Oxalate] | 20 | 24 | 1480 ± 40 | Ki [5]: 561 nM
